Laboratory results published in patent EP4737448A1, “SARM1 ENZYME ACTIVITY INHIBITOR AND USE THEREOF” (Artivila (ShenZhen) Innovation Center, Ltd., priority 2023, dated 2025).

Each compound was assayed on axons of dorsal root ganglia explants (assay: Wallerian degeneration assay of axon in mouse DRG explant culture). Conditions: 10 µM compound, 2 h pretreatment, 24 h post axonal transection.
Type: cell-based, C57BL/6 mice
Experimental: Dorsal root ganglia were dissected from two-month-old male C57BL/6 mice and placed into a 35-mm culture dish containing ice-cold HBSS buffer. Extra tissue surrounding each dorsal ganglion was removed using a scalpel, and the ganglia were cut into 2-3 explant pieces. These explants were seeded into wells of a 96-well plate pre-coated with 100 ng/mL Matrigel (Corning), added with 100 µL of DRG medium (Neurobasal medium (Gibco) containing 2% B-27 (Gibco), 1% GlutaMAX (Gibco) and 10 ng/mL NGF (MCE)), and cultured in a 37°C incubator for one week. The medium was half- replaced on the fourth day and the experiments were counted on the eighth day.
Refer to methods reported in literatures in the related art (Gerdts J, Sasaki Y, Vohra B, Marasa J, Milbrandt J. Image-based screening identifies novel roles for IkappaB kinase and glycogen synthase kinase 3 in axonal degeneration. J Biol Chem. 2011 Aug 12;286(32):28011-8) for the definition and measurement principle of the degeneration index of axon. In the present disclosure, the measurement method is detaild below.
0.1 µL of 10 mM compound to be tested was added to 100 µL of DRG medium to prepare a new medium containing 10 µM compound to be tested. The medium in the 96-well plate was removed and replaced with the new medium containing the compound to be tested. Explant pieces of dorsal ganglia were incubated with compounds in a 37°C incubator for 2 h of pre-protection. Following this 2-hour pretreatment, axons were transcted near the explants tissue piece using a glass microelectrode. At 0 h and 24 h post axonal transection, brightfield images of axons in the same region were captured using a microscope (Olympus) with 20× objective. Axonal integrity was assessed using an in-house developed script. The results were categorized based on the degree of protection into: (A) >50% and (B) 20-50%.

Compound | Degree of protection against axonal Wallerian Degeneration
O=C1C(Cc2ccc(Cl)cc2)CCN1c1ccc(-c2ccncc2)cc1 (stereo not drawn) [Compound 1, 3-(4-chlorobenzyl)-1-(4-(pyridin-4-yl)phenyl)pyrrolidin-2-one] | A ((A) >50%)
[2H]C1(Cc2ccc(F)c(F)c2)CCN(c2ccc(-c3ccncc3)cc2)C1=O (stereo not drawn) [Compound 83, 3-(3,4-difluorobenzyl)-1-(4-(pyridin-4-yl)phenyl)-3-deutero-pyrrolidin-2-one] | A ((A) >50%)
O=C1C(Cc2ccccc2)CCN1c1ccc(-c2ccncc2)nn1 (stereo not drawn) [Compound 65] | B ((B) 20-50%)
O=C1C(Cc2ccccc2)CCN1c1ccc(-c2ccncc2)cc1 (stereo not drawn) [Compound 24, 3-benzyl-1-(4-(pyridin-4-yl)phenyl)pyrrolidin-2-one] | B ((B) 20-50%)
O=C1C(Cc2ccc(Cl)cc2)CCN1c1cnc(-c2ccncc2)cn1 (stereo not drawn) [Compound 20, 3-(4-chlorobenzyl)-1-(5-(pyridin-4-yl)pyrazin-2-yl)pyrrolidin-2-one] | B ((B) 20-50%)
S=C1C(Cc2ccc(Cl)cc2)CCN1c1ccc(-c2ccncc2)nn1 (stereo not drawn) [Compound 58, 3-(4-chlorobenzyl)-1-(6-(pyridin-4-yl)pyridazin-3-yl)pyrrolidin-2-thione] | B ((B) 20-50%)
O=C1C(Cc2ccc(Cl)cc2)CCN1c1ccc(-c2ccncc2Cl)nn1 (stereo not drawn) [Compound 76, 3-(4-chlorobenzyl)-1-(6-(3-chloropyridin-4-yl)pyridazin-3-yl)pyrrolidin-2-one] | B ((B) 20-50%)
O=C1C(Cc2ccc(C(F)(F)F)cc2)CCN1c1ccc(-c2ccncc2)nn1 (stereo not drawn) [Compound 60] | B ((B) 20-50%)
O=C1C(Cc2ccc(Cl)cc2)CCN1c1ccc(-c2ccncc2)cn1 (stereo not drawn) [Compound 6, 1-([3,4'-bipyridin]-6-yl)-3-(4-chlorobenzyl)pyrrolin-2-one] | A ((A) >50%)
O=C1C(Cc2ccc(F)c(F)c2)CCN1c1ccc(-c2ccncc2)cc1 (racemic) [Compound 30, 3-(3,4-difluorobenzyl)-1-(4-(pyridin-4-yl)phenyl)pyrrolidin-2-one] | A ((A) >50%)
O=C1C(Cc2ccc(Cl)cc2)CCCN1c1ccc(-c2ccncc2)nn1 (stereo not drawn) [Compound 53, 3-(4-chlorobenzyl)-1-(6-(pyridin-4-yl)pyridazin-3-yl)piperidin-2-one] | B ((B) 20-50%)
O=C1C(Cc2ccc(Cl)cc2F)CCN1c1ccc(-c2ccncc2)nn1 (stereo not drawn) [Compound 69] | B ((B) 20-50%)
O=C1[C@H](Cc2ccc(F)c(F)c2)CCN1c1ccc(-c2ccncc2)cc1 (single isomer, unassigned) [Compound 81] | A ((A) >50%)
O=C1C(Cc2ccc(F)cc2)CCN1c1ccc(-c2ccncc2)nn1 (stereo not drawn) [Compound 55, 3-(4-fluorobenzyl)-1-(6-(pyridin-4-yl)pyridazin-3-yl)pyrrolidin-2-one] | B ((B) 20-50%)
Cc1ccc(CC2CCN(c3ccc(-c4ccncc4)cc3)C2=O)cc1 (stereo not drawn) [Compound 17, 3-(4-methylbenzyl)-1-(4-(pyridin-4-yl)phenyl)pyrrolidin-2-one] | A ((A) >50%)
O=C1C(Cc2ccc(Cl)nc2)CCN1c1ccc(-c2ccncc2)nn1 (stereo not drawn) [Compound 64] | A ((A) >50%)
O=C1C(Cc2ccc(F)cc2)CCN1c1ccc(-c2ccncc2)cc1 (stereo not drawn) [Compound 15, 3-(4-fluorobenzyl)-1-(4-(pyridin-4-yl)phenyl)pyrrolidin-2-one] | B ((B) 20-50%)
O=C1C(Cc2ccc(F)c(F)c2)CCN1c1ccc(-c2ccncc2)nn1 (stereo not drawn) [Compound 67] | A ((A) >50%)
O=C1C(Cc2ccc(Cl)cc2)CON1c1ccc(-c2ccncc2)cc1 (stereo not drawn) [Compound 3, 4-(4-chlorobenzyl)-2-(4-(pyridin-4-yl)phenyl)isoxazolidin-3-one] | B ((B) 20-50%)
O=C1C(Cc2ccc(Cl)nc2)CCN1c1ccc(-c2ccncc2)cc1 (stereo not drawn) [Compound 25, 3-((6-chloropyridin-3-yl)methyl)-1-(4-(pyridin-4-yl)phenyl)pyrrolidin-2-one] | A ((A) >50%)
O=C1[C@H](Cc2ccc(F)c(F)c2)CCN1c1ccc(-c2ccncc2)cc1 (single isomer, unassigned) [Compound 82] | A ((A) >50%)

The compounds below were run against T1, SARM1 (Homo sapiens, UniProt Q6SZW1) (assay: In vitro biochemical assay for inhibiting SARM1 enzymatic activity (PC6 fluorescence, NAD substrate, NMN activator)). Conditions: 0.05 µg/mL SARM1, 50 µM NAD, 50 µM PC6, 50 µM NMN, 10 min pre-incubation, 30 min at room temperature.
T1 construct: the inventor produces full-length SARM1 for NADase activity assays and for screening; His (C); made in house; host or cells: HEK293 cells (transient transfection; digitonin lysate supernatant, not purified further)
T1 sequence (Q6SZW1 28-724): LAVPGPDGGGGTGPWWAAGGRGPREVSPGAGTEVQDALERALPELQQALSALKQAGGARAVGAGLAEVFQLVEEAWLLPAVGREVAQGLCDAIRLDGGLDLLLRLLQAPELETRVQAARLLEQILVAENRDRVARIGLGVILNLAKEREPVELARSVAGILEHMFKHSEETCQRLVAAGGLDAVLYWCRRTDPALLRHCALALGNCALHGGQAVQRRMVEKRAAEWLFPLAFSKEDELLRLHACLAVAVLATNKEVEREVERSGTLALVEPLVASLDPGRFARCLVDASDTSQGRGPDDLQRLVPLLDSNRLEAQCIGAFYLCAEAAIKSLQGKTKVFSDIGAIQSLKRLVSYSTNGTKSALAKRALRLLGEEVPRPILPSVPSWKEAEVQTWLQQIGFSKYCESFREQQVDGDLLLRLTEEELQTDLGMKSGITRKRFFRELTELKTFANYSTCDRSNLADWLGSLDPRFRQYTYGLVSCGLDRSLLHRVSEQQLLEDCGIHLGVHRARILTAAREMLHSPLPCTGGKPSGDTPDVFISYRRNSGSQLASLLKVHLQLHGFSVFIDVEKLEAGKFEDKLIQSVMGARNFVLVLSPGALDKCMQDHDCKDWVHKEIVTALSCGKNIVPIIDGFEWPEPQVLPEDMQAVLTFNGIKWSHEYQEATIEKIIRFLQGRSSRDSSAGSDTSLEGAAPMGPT
Experimental: Compounds to be tested were stocked at 200 µM or 10 mM (in DMSO), and further diluted to the desired compound concentration for the in vitro SARM1 enzyme assay and inhibitor screening.
The gene sequence encoding SARM1 protein was amplified by PCR and the PCR amplification product was constructed into the pcDNA3.1-HIS-C plasmid. This construction was completed by YouBio Biological Technology (Hunan, China).
HEK293 cells were cultured in DMEM in a 10 cm dish. The next day, cells were transfected with 15 µg of the pcDNA3.1-SARM1-HIS-C expression plasmid.
Cells were harvested 48 hours after the transfection. The SARM1 protein expressed in cells was obtained through cell lysis by digitonin, which was used for in vitro activity assay. The specific process was as follows:
Cells were digested and detached from the dish using trypsin-EDTA, centrifuged at 1000 rpm for 5 minutes, washed once with PBS, then resuspended in PBS containing 100 µM digitonin at 0.6 mL PBS for the cells in 10 cm dish and lysed for 5 min. The cells were added with trypan blue and observed under a microscope. More than 90% of the cells were confirmed to be lysed. The cells were centrifuged at 5000 rpm for 10 min, and the supernatant containing SARM1 protein was collected.
The compound was added into a solution of 50 mM Tris-HCl (pH 7.5) containing 0.05 µg/mL SARM1 to achieve a concentration of 200 µM, and then serially diluted 6 times, where each dilution was carried out by taking half of the previous solution and adding an equal volume of 50 mM Tris-HCl (pH 7.5) containing 0.05 µg/mL SARM1, yielding a set of final concentrations of the compound of either 200, 100, 50, 25, 12.5, 6.25 and 3.125 µM, or 200, 50, 12.5, 3.125, 0.78, 0.195 and 0.049 µM. No inhibitor was added in the control group. All mixtures were incubated at room temperature for 10 min.
Subsequently, 50 µM NAD, 50 µM PC6 as substrate and 50 µM NMN as activator were added to the SARM1 protein incubated with the inhibitor and reacted for 30 min at room temperature. Wherein, the aforementioned concentrations of each component represent their respective final concentrations in the reaction system
During the reaction, the fluorescence spectrum dynamics of PC6 was detected by a microplate reader, with excitation and emission wavelengths set at 390 nm and 520 nm, respectively. The activity of the protein was expressed as the reaction rate and half maximal inhibitory concentration was calculated. The higher the reaction rate, the stronger the protein activity, and the lower the inhibitory efficiency of the compound.
Dose-response curves for inhibition of SARM1 enzymatic activity for NAD by the compounds were plotted using the above method.

Compound | IC50 [nM]
O=C1C(Cc2ccc(Cl)cc2)CCN1c1ccc(-c2ccncc2)cc1 (stereo not drawn) [Compound 1, 3-(4-chlorobenzyl)-1-(4-(pyridin-4-yl)phenyl)pyrrolidin-2-one] | < 1000
[2H]C1(Cc2ccc(F)c(F)c2)CCN(c2ccc(-c3ccncc3)cc2)C1=O (stereo not drawn) [Compound 83, 3-(3,4-difluorobenzyl)-1-(4-(pyridin-4-yl)phenyl)-3-deutero-pyrrolidin-2-one] | < 1000
O=C1C(Cc2ccccc2)CCN1c1ccc(-c2ccncc2)nn1 (stereo not drawn) [Compound 65] | < 1000
O=C1C(Cc2ccccc2)CCN1c1ccc(-c2ccncc2)cc1 (stereo not drawn) [Compound 24, 3-benzyl-1-(4-(pyridin-4-yl)phenyl)pyrrolidin-2-one] | 1000 to 10000
O=C1C(Cc2ccc(Cl)cc2)CCN1c1cnc(-c2ccncc2)cn1 (stereo not drawn) [Compound 20, 3-(4-chlorobenzyl)-1-(5-(pyridin-4-yl)pyrazin-2-yl)pyrrolidin-2-one] | < 1000
S=C1C(Cc2ccc(Cl)cc2)CCN1c1ccc(-c2ccncc2)nn1 (stereo not drawn) [Compound 58, 3-(4-chlorobenzyl)-1-(6-(pyridin-4-yl)pyridazin-3-yl)pyrrolidin-2-thione] | < 1000
O=C1C(Cc2ccc(Cl)cc2)CCN1c1ccc(-c2ccncc2Cl)nn1 (stereo not drawn) [Compound 76, 3-(4-chlorobenzyl)-1-(6-(3-chloropyridin-4-yl)pyridazin-3-yl)pyrrolidin-2-one] | < 1000
O=C1C(Cc2ccc(C(F)(F)F)cc2)CCN1c1ccc(-c2ccncc2)nn1 (stereo not drawn) [Compound 60] | < 1000
O=C1C(Cc2ccc(Cl)cc2)CCN1c1ccc(-c2ccncc2)cn1 (stereo not drawn) [Compound 6, 1-([3,4'-bipyridin]-6-yl)-3-(4-chlorobenzyl)pyrrolin-2-one] | 1000 to 10000
O=C1C(Cc2ccc(F)c(F)c2)CCN1c1ccc(-c2ccncc2)cc1 (racemic) [Compound 30, 3-(3,4-difluorobenzyl)-1-(4-(pyridin-4-yl)phenyl)pyrrolidin-2-one] | < 1000
O=C1C(Cc2ccc(Cl)cc2)CCCN1c1ccc(-c2ccncc2)nn1 (stereo not drawn) [Compound 53, 3-(4-chlorobenzyl)-1-(6-(pyridin-4-yl)pyridazin-3-yl)piperidin-2-one] | < 1000
O=C1C(Cc2ccc(Cl)cc2F)CCN1c1ccc(-c2ccncc2)nn1 (stereo not drawn) [Compound 69] | < 1000
O=C1[C@H](Cc2ccc(F)c(F)c2)CCN1c1ccc(-c2ccncc2)cc1 (single isomer, unassigned) [Compound 81] | < 1000
O=C1C(Cc2ccc(F)cc2)CCN1c1ccc(-c2ccncc2)nn1 (stereo not drawn) [Compound 55, 3-(4-fluorobenzyl)-1-(6-(pyridin-4-yl)pyridazin-3-yl)pyrrolidin-2-one] | < 1000
Cc1ccc(CC2CCN(c3ccc(-c4ccncc4)cc3)C2=O)cc1 (stereo not drawn) [Compound 17, 3-(4-methylbenzyl)-1-(4-(pyridin-4-yl)phenyl)pyrrolidin-2-one] | 1000 to 10000
O=C1C(Cc2ccc(Cl)nc2)CCN1c1ccc(-c2ccncc2)nn1 (stereo not drawn) [Compound 64] | < 1000
O=C1C(Cc2ccc(F)cc2)CCN1c1ccc(-c2ccncc2)cc1 (stereo not drawn) [Compound 15, 3-(4-fluorobenzyl)-1-(4-(pyridin-4-yl)phenyl)pyrrolidin-2-one] | 1000 to 10000
O=C1C(Cc2ccc(F)c(F)c2)CCN1c1ccc(-c2ccncc2)nn1 (stereo not drawn) [Compound 67] | < 1000
O=C1C(Cc2ccc(Cl)cc2)CON1c1ccc(-c2ccncc2)cc1 (stereo not drawn) [Compound 3, 4-(4-chlorobenzyl)-2-(4-(pyridin-4-yl)phenyl)isoxazolidin-3-one] | < 1000
O=C1C(Cc2ccc(Cl)nc2)CCN1c1ccc(-c2ccncc2)cc1 (stereo not drawn) [Compound 25, 3-((6-chloropyridin-3-yl)methyl)-1-(4-(pyridin-4-yl)phenyl)pyrrolidin-2-one] | 1000 to 10000
O=C1[C@H](Cc2ccc(F)c(F)c2)CCN1c1ccc(-c2ccncc2)cc1 (single isomer, unassigned) [Compound 82] | < 1000
Cc1cc(N2CCC(Cc3ccc(Cl)cc3)C2=O)ccc1-c1ccncc1 (stereo not drawn) [Compound 10, 3-(4-chlorobenzyl)-1-(3-methyl-4-(pyridin-4-yl)phenyl)pyrrolidin-2-one] | 1000 to 10000
COC(=O)c1ccc(CC2CCN(c3ccc(-c4ccncc4)cc3)C2=O)cc1 (stereo not drawn) [Compound 86, methyl 4-((2-oxo-1-(4-(pyridin-4-yl)phenyl)pyrrolidin-3-yl)methyl)benzoate] | 1000 to 10000
O=C1C(Cc2ccc(Cl)cc2)CCN1c1ccc(-c2ccncc2)cc1Cl (stereo not drawn) [Compound 11, 3-(4-chlorobenzyl)-1-(2-chloro-4-(pyridin-4-yl)phenyl)pyrrolidin-2-one] | 10000 to 30000
